US20110263697A1, “Methods of Reducing Oxidative Modification of a Muscle Cell Protein” (STOKELY-VAN CAMP, INC., priority 2010, published 2011)

Test system: myosin heavy chain (MHC) protein in C2C12 myotubes
Assay: Muscle cell assay: oxidative modification of myosin heavy chain protein after electrical pulse stimulation (OXYBLOT)
Assay type: cell-based, Mouse
Protocol: Mouse C2C12 myoblasts were purchased from American Type Culture Collection (ATCC; Manassas, Va.) and grown to 90% confluence in high glucose Dubecco's Modified Eagle media (DMEM) with 10% fetal bovine serum (FBS). Myoblasts from the purchased lot were grown in T75 flasks and passaged >5 times prior to plating in collagen coated six-well plates for experimentation. To induce myotube differentiation FBS was replaced with 2% horse serum for 5 days. Myoblasts were grown and myotubes were maintained without antibiotics in a 37° C., 5% CO2 incubator. Western blot analysis for myosin heavy chain (MHC) protein indicated expression by day five with maintenance of steady state protein levels through day eight of differentiation. Electrical pulsing was applied to the myotubes using a C-Pace EP Cell Culture Stimulator (IonOptix; Milton, Mass.). Cells were stimulated to visibly and repetitively contract for 90 minutes at a pulse frequency of 0.5 Hz and a pulse duration of 24 ms. Immediately prior to stimulation, day old media was removed and replaced with 5 ml of fresh differentiation media. Myotubes were lysed and proteins were derivatized to 2,4-dinitrophenylhydrazone (DNP; OXYBLOT method). […] Protein bands were visualized and quantified with a Bio-Rad Chemidoc XRS system. […]

`Cc1c(C)c2c(c(C)c1O)CCC(C)(C(=O)O)O2` (centres unmarked) [TROLOX, 6-hydroxy-2,5,7,8-tetramethylchroman-2-carboxylic acid] was tested, and the “Oxidative modification of MHC protein reduced (% of EPS alone)” value (1 mM TROLOX pre-treatment approx. 18 h prior and again immediately before EPS, 90 min EPS at 0.5 Hz, 24 ms, five independent experiments, FIG. 4) was 42±15% and the “Oxidative modification of myosin heavy chain protein compared to electrical pulse stimulation alone (FIG. 4)” value (incubated with 1 mM TROLOX and subjected to electrical pulse stimulation) was “reduced oxidative modification”.
